Measurements as given in patent publication US7435587B2, “Apparatus for growing cells under variable hydrostatic pressures” (Memorial Sloan-Kettering Cancer Center, priority 2002, dated 2008).
“Also recorded” adds a separate entry of the source.

Legend:
Type in all cases: cell-based, human
[1] = system: HOS cells; experiment: Conventional 96-well chemosensitivity testing of HOS cells grown under pressure, de-pressurized, trypsinized and reattached 24 h (Alamar blue); settings: tested at atmospheric pressure, p<0.05; for difference in the ED50 between cells grown at atmospheric pressure and those grown under 20 mmHg of pressure: HOS cells grown 72 h at 0 vs 20 mmHg, de-pressurized, difference is small
Method: HOS cells were pressurized at 0 and 20 mmHg for 72 hours. At the end of this time point the growth membrane was removed and discs were created with a sterile punch. These discs bearing 2000 cells/disc were placed within each of the wells in a Costar 96-well plate (Bio-Rad, Hercules, Calif.). Serial dilutions of doxorubicin were immediately applied to the wells at a dose of 100 μg/ml to 0.00128 μg/ml. These were allowed an exposure time of 24 hours and then washed with PBS and 200 μl growth media replaced for a further 24 hours 25 μl of Alamar blue dye® (BioSource International, Camarillo, Calif.) was added for a further 8 hours and metabolic activity read with a Cytofluor® plate reader (Applied Biosystems, Foster City, Calif.). Metabolic activity was expressed as per manufacturer recommendations (BioSource International, Camarillo, Calif.). The experiment was repeated using cells grown at 72 hours under pressure, de-pressurized to atmospheric pressure and then trypsinized and seeded at 2000 cells per well and allowed 24 hours to gain attachment. They were then treated with doxorubicin. Assessment was completed as above. […] Student's t-test was used to assess for significance between the results of chemosensitivity at 0 and 20 mmHg. […] Each data point represents the mean of six readings with error bars representing the standard deviation.

[2] = system: HOS cells; experiment: Chemosensitivity testing in a pressurized cassette-HPA system (in situ cell counts); settings: for differences in growth between the pressurized and non-pressurized systems: 0 vs 20 mmHg, 72 h under pressure with drug, at 0.16 and 1 μ/ml; for difference in viability (cell counts under pressure) between 0 and 20 mmHg: testing under pressure, clinically relevant range of 0.04 to 4 μ/ml
Method: To investigate chemosensitivity in a pressurized system, 1.5×10^4 HOS cells were seeded in 16 cassettes. These were incubated for 24 hours and baseline counts were made at the end of 24 hours. Serial dilutions of doxorubicin were added at a dose of 0 μg/ml, 0.16 μg/ml, 1 μg/ml and 8 μg/ml. […] Two sets were provided for each drug at 0 and 20 mmHg. Pressurization proceeded for 72 hours as described above. At the end of this time point, in situ cell growth over the identical 5 high power fields recorded after the first 24 hours were made. The observer was blinded to the identity of the sample being read. Cell growth was expressed as a ratio between the 72 hour and baseline 24 hour counts. This was then normalized to the readings for cells that were not exposed to chemotherapy (i.e. 0 μg/ml). This was done to account for cell growth changes that could result from the pressure effect itself. Student's T-test was used to assess for significance between the results of chemosensitivity at 0 and 20 mmHg. […] Each data point represents the mean of five readings with error bars representing the standard error of the mean.

[3] = system: HOS cells; experiment: Chemosensitivity testing of membrane discs bearing pressurized HOS cells immediately exposed to drug in 96-well plate (Alamar blue); settings: HOS cells grown under pressure 72 h, cut from membranes, 24 h drug exposure at atmospheric pressure, no 24 h de-pressurization
Method: HOS cells were pressurized at 0 and 20 mmHg for 72 hours. At the end of this time point the growth membrane was removed and discs were created with a sterile punch. These discs bearing 2000 cells/disc were placed within each of the wells in a Costar 96-well plate (Bio-Rad, Hercules, Calif.). Serial dilutions of doxorubicin were immediately applied to the wells at a dose of 100 μg/ml to 0.00128 μg/ml. These were allowed an exposure time of 24 hours and then washed with PBS and 200 μl growth media replaced for a further 24 hours 25 μl of Alamar blue dye® (BioSource International, Camarillo, Calif.) was added for a further 8 hours and metabolic activity read with a Cytofluor® plate reader (Applied Biosystems, Foster City, Calif.). Metabolic activity was expressed as per manufacturer recommendations (BioSource International, Camarillo, Calif.).

SMILES: N.N.[Cl][Pt][Cl] [cisplatin]
- difference in the ED50 between cells grown at atmospheric pressure and those grown under 20 mmHg of pressure [1]: statistically significant difference
- differences in growth between the pressurized and non-pressurized systems [2]: marked differences in growth
- difference in viability (cell counts under pressure) between 0 and 20 mmHg [2]: dramatic difference in viability

SMILES: COc1cccc2c1C(=O)c1c(O)c3c(c(O)c1C2=O)C[C@@](O)(C(=O)CO)C[C@@H]3O[C@H]1C[C@H](N)[C@H](O)[C@H](C)O1 [doxorubicin]
- difference in the ED50 between cells grown at atmospheric pressure and those grown under 20 mmHg of pressure [1]: statistically significant difference
- difference in cytotoxicity between cells grown at 0 and 20 mmHg ([1]; depressurized HOS cells, drug concentration range 0.04 to 4 μg/ml): statistically significant difference in cytotoxicity
- difference in sensitivity between cells grown at 0 and 20 mmHg, membranes immediately exposed to drug [3]: this difference became more pronounced; also recorded: dramatic differences to sensitivity
- differences in growth between the pressurized and non-pressurized systems [2]: marked differences in growth
- difference in viability (cell counts under pressure) between 0 and 20 mmHg [2]: dramatic difference in viability
